Measurements from patent publication US5328900A, “Anti-thrombotic peptide and pseudopeptide derivatives” (Rhone-Poulenc Rorer Pharmaceuticals Inc., priority 1992, dated 1994).
Where a SMILES comes first, the peptide text is derived from it. [ ]: non-standard residue; d: D form. Aze = O=C(O)[C@@H]1CCN1; Inp = O=C(O)C1CCNCC1

How the values were obtained:
[1] = molecular target: T1, fibrinogen binding to thrombin-stimulated platelets (Homo sapiens, UniProt P05106+P08514); test: Inhibition of radiolabeled (125I) fibrinogen binding assay
T1 construct: endogenous in cells; host or cells: washed platelets stimulated with human alpha-thrombin
T1 sequence (P08514 32-887 limits assumed): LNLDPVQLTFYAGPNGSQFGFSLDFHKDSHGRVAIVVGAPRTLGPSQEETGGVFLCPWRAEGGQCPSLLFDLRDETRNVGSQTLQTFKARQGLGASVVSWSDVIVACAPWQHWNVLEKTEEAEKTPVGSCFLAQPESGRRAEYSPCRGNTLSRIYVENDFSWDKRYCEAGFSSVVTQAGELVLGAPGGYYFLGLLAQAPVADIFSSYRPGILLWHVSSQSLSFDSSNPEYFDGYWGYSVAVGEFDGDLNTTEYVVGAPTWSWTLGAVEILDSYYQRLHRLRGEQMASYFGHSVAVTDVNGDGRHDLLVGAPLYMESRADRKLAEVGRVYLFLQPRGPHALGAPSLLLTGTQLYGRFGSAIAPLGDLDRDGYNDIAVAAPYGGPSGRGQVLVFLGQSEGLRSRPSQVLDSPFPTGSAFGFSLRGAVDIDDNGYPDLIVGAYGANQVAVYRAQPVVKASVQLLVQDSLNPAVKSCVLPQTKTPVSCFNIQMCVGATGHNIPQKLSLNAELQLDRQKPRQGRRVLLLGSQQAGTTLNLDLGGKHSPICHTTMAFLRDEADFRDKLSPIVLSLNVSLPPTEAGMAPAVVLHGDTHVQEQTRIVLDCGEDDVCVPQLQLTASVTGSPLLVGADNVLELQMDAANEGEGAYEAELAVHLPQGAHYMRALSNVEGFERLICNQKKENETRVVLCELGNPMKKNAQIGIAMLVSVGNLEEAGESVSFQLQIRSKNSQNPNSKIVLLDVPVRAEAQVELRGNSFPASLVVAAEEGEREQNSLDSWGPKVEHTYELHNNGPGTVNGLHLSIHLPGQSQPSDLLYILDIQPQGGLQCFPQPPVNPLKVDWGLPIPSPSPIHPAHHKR
T1 sequence (P08514 891-1039 partner limits assumed): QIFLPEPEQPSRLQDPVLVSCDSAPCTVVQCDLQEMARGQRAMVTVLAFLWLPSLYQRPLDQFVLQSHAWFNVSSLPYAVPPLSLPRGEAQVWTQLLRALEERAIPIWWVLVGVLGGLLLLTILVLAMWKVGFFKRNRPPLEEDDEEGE
T1 sequence (P05106 27-788): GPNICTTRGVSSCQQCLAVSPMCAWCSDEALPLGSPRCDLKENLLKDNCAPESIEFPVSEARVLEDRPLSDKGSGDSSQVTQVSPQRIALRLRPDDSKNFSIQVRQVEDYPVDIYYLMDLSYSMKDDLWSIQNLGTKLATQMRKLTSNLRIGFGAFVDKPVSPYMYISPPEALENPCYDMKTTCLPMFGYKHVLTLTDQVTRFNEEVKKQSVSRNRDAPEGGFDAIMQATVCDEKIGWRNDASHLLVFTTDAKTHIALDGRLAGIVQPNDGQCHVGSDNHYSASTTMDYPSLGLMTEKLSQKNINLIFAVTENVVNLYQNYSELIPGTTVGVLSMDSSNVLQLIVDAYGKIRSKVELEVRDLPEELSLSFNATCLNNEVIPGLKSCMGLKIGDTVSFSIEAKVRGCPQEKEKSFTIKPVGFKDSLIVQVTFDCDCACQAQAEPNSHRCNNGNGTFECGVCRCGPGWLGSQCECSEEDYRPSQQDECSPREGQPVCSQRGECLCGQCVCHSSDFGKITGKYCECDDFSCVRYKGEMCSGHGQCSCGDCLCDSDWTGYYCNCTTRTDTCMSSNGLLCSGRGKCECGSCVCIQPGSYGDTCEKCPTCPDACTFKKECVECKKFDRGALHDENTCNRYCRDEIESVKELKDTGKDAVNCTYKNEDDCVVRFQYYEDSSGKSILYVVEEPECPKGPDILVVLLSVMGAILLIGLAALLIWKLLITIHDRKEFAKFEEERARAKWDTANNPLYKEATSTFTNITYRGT
Procedure: I. Inhibition of Radiolabeled (^125 I) Fibrinogen Binding Assay, which is essentially based on the method described in Proc. Natl. Acad. Sci. USA Vol. 83, pp. 5708-5712, August 1986, and is as follows.
Platelets are washed free of plasma constituents by the albumin density-gradient technique. In each experimental mixture platelets in modified Tyrode's buffer are stimulated with human α-thrombin at 22°-25° C. for 10 minutes (3.125×10" platelets per liter and thrombin at […]). Hirudin is then added at a 25-fold excess for 5 minutes before addition of the radiolabeled ligand and any competing ligand. After these additions, the final platelet count in the mixture is 1×10"/liter. After incubation for an additional 30 minutes at 22°-25° C., bound and free ligand are separated by centrifuging 50 μl of the mixture through 300 μl of 20% sucrose at 12,000×g for 4 minutes. The platelet pellet is then separated from the rest of the mixture to determine platelet-bound radioactivity. Nonspecific binding is measured in mixtures containing an excess of unlabeled ligand. When binding curves are analyzed by Scatchard analysis, nonspecific binding is derived as a fitted parameter from the binding isotherm by means of a computerized program. […]

Human platelets = test: Inhibition of fibrinogen-mediated platelet aggregation; format: cell-based; settings: for IC50: thrombin-activated human platelets, rate of aggregation
Procedure: II. Inhibition of Fibrinogen-Mediated Platelet Aggregation, which is essentially based on the method described in Blood, Vol. 66, No. 4, October 1985, pp. 946-952, and is as follows.
Human platelets were isolated from freshly drawn whole blood and were suspended in 0.14 mol/L NaCl, 2.7 mmol/L […], 12 mmol/L NaHCO3, 0.42 mmol/L Na2 HPO4, 0.55 mmol/L glucose, and 5 mmol/L Hepes, pH 7.35 at 2×10^8 platelets/ml. The suspension was incubated at 37° C. An aliquot of 0.4 ml of platelet suspension was activated by human thrombin at a final concentration of 2 μg/ml of thrombin for one minute. After one minute the reaction was stopped by a thrombin inhibitor. Serial dilution of the compound being tested was then added to the activated platelet, the reaction was allowed to proceed for one minute, followed by the addition of human fibrinogen at a final concentration of […] of fibrinogen. Platelet aggregation was then recorded by an aggregometer. Rate of aggregation was used to calculate IC50.

Row | Inhibition of 125I-fibrinogen binding, extent at 25 μM ([1]; 25 μM) | IC50 (Human platelets) | IC50 ([1]; thrombin-stimulated washed platelets, 125I-fibrinogen 0.176 μmol/liter) | Structure (SMILES) | Inhibition of Fibrinogen Mediated Platelet Aggregation % inhibition at 25 μM (Human platelets)
1 | 15% | > 200 µM | – | CC(C)[C@H](NC(=O)[C@H](CC(=O)O)NC(=O)[C@@H]1CCN1C(=O)C1CCN(C(=N)N)CC1)C(=O)O [N-[2(S)-1-(amidinopiperidin-4-yl-carbonyl)-azetidin-2-yl-carbonyl]-L-aspartyl-L-valine] | 15%
2 | – | 29.6 µM | > 64 µM | CC(C)[C@H](NC(=O)[C@H](CC(=O)O)NC(=O)[C@@H]1CCN1C(=O)C1CCNCC1)C(=O)O [N-[2(S)-1-(piperidin-4-yl-carbonyl)azetidin-2-yl-carbonyl]-L-aspartyl-L-valine] (H-[Inp][Aze]DV-OH) | 47%
